Melting point and IC50 data for 47 molecules are collected here from patent US20040259888A1, “Novel 4-aminofuropyrimidines and the use thereof” (priority 2001, published 2004).

Structures can show the parent of a compound that is named as a salt.

System in one data set: not given
Test: not given
Conditions: not given
For orientation: melting point means the temperature, or range, at which the solid turns liquid. As to `CN1CCC(N(C)c2ncnc3oc(-c4ccc(F)cc4)c(-c4ccc(F)cc4)c23)CC1`, the melting point lay in the range of 180 to 181 °C.

Turning to `COc1cc(OC)cc(-c2oc3ncnc(NC4CCCCCC4)c3c2-c2ccccc2)c1` [Example 1, N-Cycloheptyl-6-(3,5-dimethoxyphenyl)-5-phenylfuro[2,3-d]pyrimidine-4-amine], the melting point was in the range of 151 to 152 °C.

`COc1cc(OC)cc(-c2oc3ncnc(N4CCCCC4)c3c2-c2ccccc2)c1` [Example 2, 6-(3,5-Dimethoxyphenyl)-5-phenyl-4-(1-piperidinyl)furo[2,3-d]pyrimidine] displayed a melting point of 152 to 153 °C.

Molecule `CN1CCN(c2ncnc3oc(-c4ccc([N+](=O)[O-])cc4)c(-c4ccc(F)cc4)c23)CC1` [Example 3, 5-(4-Fluorophenyl)-4-(4-methyl-1-piperazinyl)-6-(4-nitrophenyl)furo[2,3-d]pyrimidine] yielded a melting point of more than 250 °C.

Consider `CN1CCN(c2ncnc3oc(-c4ccc(N5CCOCC5)nc4)c(-c4ccccc4)c23)CC1` [Example 7, 4-(4-Methyl-1-piperazinyl)-6-[N-(4-morpholinyl)-3-pyridinyl]-5-phenylfuro[2,3-d]pyrimidine], for which the melting point lay within 255 to 257 °C.

Molecule `COc1ccc(-c2oc3ncnc(N4CCN(CCO)CC4)c3c2-c2ccc(F)cc2)cc1OC` [Example 39] showed a melting point of 156 to 158 °C.

Turning to `O=C(Nc1ccc(-c2oc3ncnc(N4CCOCC4)c3c2-c2ccc(F)cc2)cc1)c1ccc([N+](=O)[O-])cc1` [Example 47], the melting point is more than 250 °C.

In turn, `CN1CCN(c2ncnc3oc(-c4ccc(NC(=O)c5cccc([N+](=O)[O-])c5)cc4)c(-c4ccc(F)cc4)c23)CC1` [Example 48] had a melting point of more than 250 °C.

In the case of `CN1CCN(c2ncnc3oc(-c4ccc(NC(=O)C5CCCO5)cc4)c(-c4ccc(F)cc4)c23)CC1` (centres unmarked) [Example 49], the melting point is more than 250 °C.

The molecule `COc1ccc(-c2oc3ncnc(N4CCC(C(N)=O)CC4)c3c2-c2ccc(F)cc2)cc1OC` [Example 51] had a melting point of 235 to 237 °C.

For the molecule `COc1ccc(-c2oc3ncnc(N4CCN(C)CC4)c3c2-c2ccc(F)cc2)cc1OC` [Example 53], the melting point was 168 to 169 °C.

Molecule `COc1ccc(C(=O)Nc2ccc(-c3oc4ncnc(N5CCN(C)CC5)c4c3-c3ccc(F)cc3)cc2)cc1` [Example 54] gave a melting point of 252 to 253 °C.

Regarding `CC(=O)NC(C)C(=O)Nc1ccc(-c2oc3ncnc(N4CCOCC4)c3c2-c2ccc(F)cc2)cc1` (centres unmarked) [Example 55], the melting point fell in the range of 250 to 252 °C.

`CCN(CC)c1ncnc2oc(-c3ccc(OC)c(OC)c3)c(-c3ccccc3)c12` [Example 63] registered a melting point of 125 to 126 °C.

On to `COc1ccc(-c2oc3ncnc(N4CCN(C(C)C)CC4)c3c2-c2ccc(F)cc2)cc1OC` [Example 64], for which the melting point fell in the range of 180 to 181 °C.

As to `COc1cc(OC)cc(-c2oc3ncnc(NC4CCCCCC4)c3c2-c2ccc(F)cc2)c1` [Example 69], the melting point fell in the range of 170 to 172 °C.

With `CN1CCN(c2ncnc3oc(-c4ccc(NC(=O)c5cccnc5)cc4)c(-c4ccc(F)cc4)c23)CC1` [Example 70], the melting point is more than 250 °C.

The molecule `O=C(Nc1ccc(-c2oc3ncnc(N4CCOCC4)c3c2-c2ccc(F)cc2)cc1)C1CCCO1` (centres unmarked) [Example 71] came in with a melting point of 201 to 202 °C.

For `CN1CCN(c2ncnc3oc(-c4ccc(NCc5ccccc5)cc4)c(-c4ccccc4)c23)CC1` [Example 75], the melting point lay within 161 to 163 °C.

In turn, `COc1cc(OC)cc(-c2oc3ncnc(N4CCN(CCO)CC4)c3c2-c2ccc(F)cc2)c1` [Example 83] gave a melting point of 161 to 163 °C.

In turn, `COC(=O)c1ccc(C(=O)Nc2ccc(-c3oc4ncnc(N5CCN(C)CC5)c4c3-c3ccc(F)cc3)cc2)cc1` [Example 88] gave a melting point of more than 250 °C.

Molecule `CN1CCN(c2ncnc3oc(-c4ccc(Cl)nc4)c(-c4ccccc4)c23)CC1` [Example 94] gave a melting point of 173 to 175 °C.

As for `COc1cc(OC)cc(-c2oc3ncnc(NC(CO)CO)c3c2-c2ccccc2)c1` [Example 108], the melting point fell in the range of 131 to 133 °C.

`COc1ccc(-c2c(-c3ccc(OC)c(OC)c3)oc3ncnc(NC4CCCCC4)c23)cc1` [Example 109] gave a melting point of 181 to 182 °C.

As for `COc1ccc(-c2oc3ncnc(N4CCC(O)CC4)c3c2-c2ccccc2)cc1OC` [Example 111], the melting point lay in the range of 176 to 178 °C.

Take `COc1ccc(-c2oc3ncnc(N4CCN(CCO)CC4)c3c2-c2ccccc2)cc1OC` [Example 112]: the melting point was 188 to 189 °C.

`COc1cc(OC)cc(-c2oc3ncnc(N4CCN(C)CC4)c3c2-c2ccccc2)c1` [Example 113] had a melting point of 156 to 157 °C.

As to `COc1ccc(-c2oc3ncnc(N4CCN(c5ccccn5)CC4)c3c2-c2ccc(F)cc2)cc1OC` [Example 114], the melting point fell in the range of 210 to 212 °C.

As to `COc1ccc(-c2oc3ncnc(NC4CCCCCC4)c3c2-c2ccc(F)cc2)cc1OC` [Example 115], the melting point was 180 to 182 °C.

In turn, `COc1ccc(-c2oc3ncnc(N4CCOCC4)c3c2-c2ccc(F)cc2)cc1OC` [Example 116] had a melting point of 211 to 213 °C.

On to `CN1CCN(c2ncnc3oc(-c4ccc(NC5CCCCC5)nc4)c(-c4ccccc4)c23)CC1` [Example 125], for which the melting point lay in the range of 208 to 209 °C.

In turn, `COc1cc(OC)cc(-c2oc3ncnc(NCCc4cccs4)c3c2-c2ccccc2)c1` [Example 134] gave a melting point of 152 to 153 °C.

On to `COc1cc(OC)cc(-c2oc3ncnc(NC4CCCC4)c3c2-c2ccccc2)c1` [Example 135], for which the melting point lay within 153 to 154 °C.

As for `COc1ccc(-c2oc3ncnc(N4CCCCCC4)c3c2-c2ccc(F)cc2)cc1OC` [Example 141], the melting point fell in the range of 148 to 150 °C.

As to `COc1ccc(-c2oc3ncnc(N4CCC(C(N)=O)CC4)c3c2-c2ccccc2)cc1OC` [Example 154], the melting point was more than 250 °C.

`COc1cc(OC)cc(-c2oc3ncnc(N(C)CCO)c3c2-c2ccccc2)c1` [Example 157] came in with a melting point of 132 to 134 °C.

Regarding `COc1ccc(-c2oc3ncnc(N(CCO)CCO)c3c2-c2ccccc2)cc1OC` [Example 159], the melting point fell in the range of 137 to 139 °C.

Take `COc1ccc(-c2oc3ncnc(Nc4ccncc4)c3c2-c2ccccc2)cc1OC` [Example 172]: the melting point is more than 250 °C.

`CN1CCN(c2ccc(-c3oc4ncnc(N5CCN(C)CC5)c4c3-c3ccccc3)cn2)CC1` [Example 173] displayed a melting point of 176 to 177 °C.

`OCCN(Cc1ccccc1)c1ncnc2oc(-c3ccc(F)cc3)c(-c3ccc(F)cc3)c12` [Example 177]: the melting point lay in the range of 156 to 158 °C.

A further data set deals with human recombinant adenosine kinase (Homo sapiens, UniProt P55263). In words: Inhibition of human recombinant adenosine kinase. The class given is biochemical. As to conditions: 14C-adenosine substrate, 0.5 mM ATP, 37° C., 20 min; read-out: Adenosine kinase inhibition (in vitro): IC50. On the procedure: 1. Inhibition of Human Recombinant Adenosine Kinase
human recombinant adenosine kinase, sequence (P55263 1-345 isoform P55263-2): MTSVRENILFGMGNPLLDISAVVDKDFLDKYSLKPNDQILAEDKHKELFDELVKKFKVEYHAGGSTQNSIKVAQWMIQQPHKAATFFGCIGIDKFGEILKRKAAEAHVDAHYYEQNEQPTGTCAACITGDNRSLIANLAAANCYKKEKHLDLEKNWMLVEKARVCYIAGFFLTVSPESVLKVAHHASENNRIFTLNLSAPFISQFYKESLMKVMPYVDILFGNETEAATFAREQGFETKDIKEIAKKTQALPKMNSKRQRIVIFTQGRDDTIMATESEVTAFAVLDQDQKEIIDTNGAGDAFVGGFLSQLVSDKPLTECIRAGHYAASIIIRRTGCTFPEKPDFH
The test is carried out on 96-well filter plates (DE81 from Millipore, DEAE cellulose, 0.65 μm). The test buffer contains 50 mM tris/HCl pH 8.0, 10 mM DTT and 1 mM MgCl2; immediately prior to the start of the test, ATP is added in a concentration of 0.5 mM. The substrate used is ^14C-adenosine, diluted 1:30 in cold adenosine; the final concentration of the cold adenosine is 4×10^−6 M; the amount of ^14C-adenosine is chosen such that, at a volume of 10 μl, an activity of 0.5 kBq (=30 000 decays per minute) is present per well of the filter plate. The substances to be tested are dissolved in DMSO in a concentration of 10^−2 M. Further dilutions are carried out using water.
When carrying out the test, initially 80 μl of buffer are initially charged into each well. The test substances, the substrate adenosine and finally human recombinant adenosine kinase (Mathews J. J. et al., Biochemistry (1998) 37, 15607-15620) in test buffer pH 7.4 are added successively, in each case in a volume of 10 μl. The adenosine kinase concentration is chosen such that at most 30% of the total amount of adenosine are converted. The plates are then incubated at 37° C. for 20 min. The reaction is then stopped by filtration with suction. The filters are washed in each case once with ice-cold wash buffer (15 mM Tris/HCl pH 8.5) and ethanol. The plate is dried at 37° C. (about 15 min). 50 μl of scintillation solution are then pipetted into each well, and the ^14C activity is determined in a MicroBeta counter.
The inhibition of the enzyme activity by the substances tested is determined after substration of the blank value (no added enzyme) in comparison to the uninhibited enzyme (100% value).
One may read the IC50 as the point on the concentration scale where inhibition reaches its midpoint. Turning to `CN1CCN(c2ncnc3oc(-c4ccc(NC(=O)CN)cc4)c(-c4ccc(F)cc4)c23)CC1` [Example 6, N-1-{4-[5-(4-Fluorophenyl)-4-(4-methyl-1-piperazinyl)furo[2,3-d]pyrimidin-6-yl]phenylgylcinamidedihydrochloride], the 50% inhibitory concentration (IC50) was determined as 0.02 µM.

For `CN1CCN(c2ccc(-c3oc4ncnc(N5CCC(O)CC5)c4c3-c3ccccc3)cn2)CC1` [Example 10, 1-{6-[6-(4-Methyl-1-piperazinyl)-3-pyridinyl]-5-phenylfuro[2,3-d]pyrimidin-4-yl]-4-piperidinol], the IC50 is 0.01 µM.

On to `CC(C)CNc1ncnc2oc(-c3ccc(C(=O)N4CCN(C)CC4)cc3)c(-c3ccccc3)c12` [Example 13, N-Isobutyl-6-{4-[(4-methyl-1-piperazinyl)carbonyl]phenyl}-5-phenylfuro[2,3-d]-pyrimidine-4-amine], for which the half-maximal inhibitory concentration (IC50) turned out to be 0.1 µM.

For `CN1CCN(c2ncnc3oc(-c4ccc(N5CCC5=O)cc4)c(-c4ccc(F)cc4)c23)CC1` [Example 24, 1-{4-[5-(4-Fluorophenyl)-4-(4-methyl-1-piperazinyl)furo[2,3-d]pyrimidin-6-yl]phenyl}-2-azetidinone], the IC50 was 0.03 µM.

With `COc1ccc(-c2oc3ncnc(N(C)C4CCCCCC4)c3c2-c2ccc(OC)cc2)cc1` [Example 29, N-Cycloheptyl-5,6-bis(4-methoxyphenyl)-N-methylfuro[2,3-d]pyrimidine-4-amine], the IC50 came out at 0.08 µM.

Regarding `CN1CCN(c2ncnc3oc(-c4ccc(NC(=O)c5cccnc5)cc4)c(-c4ccccc4)c23)CC1` [Example 32, N-{4-[4-(4-Methyl-1-piperazinyl)-5-phenylfuro[2,3-d]pyrimidin-6-yl]phenyl}-nicotinamide], the 50% inhibitory concentration (IC50) was determined as 0.03 µM.

On to `OCCNc1ccc(-c2oc3ncnc(N4CCC(O)CC4)c3c2-c2ccc(F)cc2)cn1` [Example 193, 1-(5-(4-Fluorophenyl)-6-{6-[(2-hydroxyethyl)amino]-3-pyridinyl]furo[2,3-d]pyrimidin-4-yl)-4-piperidinol], for which the concentration for half-maximal inhibition (IC50) was determined as 0.03 µM.
